# Source: patent publication US20220257599A1, “METHODS USEFUL IN TREATING CANCERS HARBORING A KRAS OR HRAS MUTATION OR AMPLIFICATION” (Memorial Sloan Kettering Cancer Center, priority 2019, published 2022)
# Experiments:
# iKRas cells [1] = test: Intracellular endomembrane lipid nanosensor (reporter) assay, near-infrared hyperspectral microscopy; format: cell-based, mouse; settings: for attenuation of lipid reporter response (lipid dysregulation) in iKRas cells: 50 nM during the 24 h induction period, order darapladib>rilapladib≈ML256>AA39-2; for lipid nanosensor response in iKRas relative to vector: pathway inhibitors, 500 nM, 24 h treated cultures
# Method: Hyperspectral Microscopy. For lipid reporter imaging experiments, cells were plated on 35 mm glass bottom dishes (MatTek Corp. P35G-1.5-10-C) so that around 0.5-0.8E6 cells were present on assay day. 24 h prior to assay, cells were briefly rinsed with fresh media and cultured as described. On the day of the assay, test media was removed to a sterile Eppendorf, spun in a mini-fuge to pellet cellular debris, and stored at 37° C. Attached cells were briefly rinsed with Pulse media (serum-free complete medium), then exposed to nano-reporter (0.2 μg/mL in Pulse media) for 30 minutes. After exposure, excess nano-reporter was removed by rinsing in complete medium and the stored test media was re-added to the dish for the 5-h incubation period. Near-infrared hyperspectral microscopy^87 was performed on live attached cells to obtain fluorescence emission maps from endomembrane vesicles.^88 Briefly, a 730 nm continuous wave diode laser was pumped through fibers to a 100× oil objective to excite the fluorescent reporters inside attached cells. Collected emission was stored as a hyperspectral imaging cube of encoded wavelengths rectified between 1100 and 1200 nm. The center wavelength for each pixel in the cube was obtained by fitting a Lorentzian function in MATLAB. The center wavelength of the entire population of pixels in each cube, representing a 100× magnified imaging field, was fit with a Gaussian function in OriginPro 9.0. The resulting fit center wavelength values are reported.
# To assess lipid dysregulation in live cells, the lipid nanosensor was introduced into the culture medium of RAS- or vector-transformed cell lines. Near-infrared hyperspectral microscopy was utilized to acquire the fluorescence spectra of the nanosensor spatially within iKRas, iHRas, eKRas, vector control cells, and MEFs harboring mutations in the parallel PI3K pathway. The data were fitted to determine the center wavelength of the nanosensor emission band, which was then mapped back over the brightfield images of the cells and plotted in a histogram. Using this method, the average sensor emission wavelength 24 h and 72 h after oncogenic RAS induction was measured.
# Next measured was whether this intracellular reporter response was sensitive to sPLA2-mediated generation of lysophospholipids and related lipid species. Lipid accumulation was measured using the nanosensor 24 h after treating the cells with an array of PLA2 inhibitors.
# eKRas cells = test: Proliferation assay (attached cell number); format: cell-based, mouse; settings: critical micelle concentrations, 10 μM of each lipid
# Method: (§1) Proliferation Assays. To assay proliferation, 6E4 cells/well were plated in 6-well plates (ThermoFisher 140675) with complete medium to generate triplicate wells, per experimental condition, for Day 0 through Day 3/4. 6-8 h after seeding cells, wells were briefly rinsed with fresh medium and then cultured with the appropriately supplemented test medium. The Day 0 plate was counted at this time. Plates were counted at 24-h intervals. Attached and spread MEF's are >95% viable,^84 as confirmed by a lack of trypan blue staining or positive western blot for cleaved caspase 7 or PARP (data not shown). To count attached cells, media was aspirated from each well then rinsed, using manual agitation, twice in room temperature (RT) 1×HBSS (w/o Ca/Mg++). Attached cells were trypsinized with 1 mL TrypLE. An imaging cytometer (Thermo T10796; factory default settings) was loaded with chamber slides (ThermoFisher T10794) containing 24 μL of the trypsinized cell suspension. 18 fields were imaged; the cytometer output was given in cells/mL. […] An upper gating threshold was set at 34 μm to include size-doubling of the measured 17 μm average.
# (§2) As sPLA2 enzyme isoforms have been described as both tumor suppressors and tumor promoters,^48, 49, 50, 51, 52, 53 iKRas cells were interrogated using two representative lipids—a group 7 sPLA2 substrate, and a product. First, the vector control cells were incubated with increasing concentrations of 16:0 lysoPC, a group 7 sPLA2 product, and 16:0 methylcarbamyl PAF (cPAF), a substrate. […] Therefore, in the vector control cells, intracellular accumulation of the group 7 sPLA2 product affected proliferation to a greater extent than the enzyme substrate. […] In addition, eKRas cells were much more sensitive to the substrate lipid absent significant RAS-related damage or group 7 activity.
# iKRas cells [2] = test: Proliferation assay (attached cell number); format: cell-based, mouse; settings: critical micelle concentrations, 10 μM of each lipid
# Method: as §1, §2
# vector control cells = test: Proliferation assay (attached cell number); format: cell-based, mouse; settings: increasing lipid concentrations spiked into culture medium; lysoPC effect near its CMC, cPAF at sub-critical and critical micelle concentrations
# Method: as §1, §2
# [3] = test system: phospho-ERK and p21^waf1/cip1; test: Immunoblot of vector/iKRas cell lysates; format: cell-based, mouse; settings: vector and iKRas cells, 24 h exposure to 10 μM lipid
# PAF receptor (PAF-R) = test: Immunoblot for the PAF receptor; format: cell-based, mouse; settings: vector cells, 24 h exposure to 10 μM lipid
# [4] = test system: syngeneic KrasG12D/+; Trp53−/− (KP) transplant model of non-small cell lung cancer; test: In vivo survival study; design: species or system mouse
# Method: In vivo survival study. To generate the syngeneic KP transplant lung cancer model, a cell line derived from a KrasG12D/+; Trp53−/−(KP) GEMM lung tumor was infected with a retroviral luciferase (Luc)-GFP construct, and 5000 KP tumor cells resuspended in 400 μL of PBS were tail vein injected into 7 week old Female C57BL/6 mice.^90 Mice were randomized into various study cohorts before treatment with vehicle or darapladib. Treatments were administered by oral gavage once per day, Monday through Friday. […] Bioluminescence positive mice remained in the study while bioluminescence negative mice were euthanized, and their lungs were harvested for histology. Tissues were rinsed and fixed in 4° C. buffered 4% paraformaldehyde for 24-48 hours and moved to 4° C. 70% ethanol for long term storage, embedding, sectioning, and staining (H&E, anti-GFP primary antibody, anti-Ki-67 primary antibody). […] Tissues negative for histological dysplasia were excluded from final study analysis; tissues positive for histological dysplasia were kept in the final study analysis. Each cohort's N value was adjusted to reflect histology results before final analysis. […]
# The inventors next assessed whether group 7 inhibition would impact the development of a RAS-harboring murine cancer model. […]
# [5] = depending on the cell type and downstream marker used; read-out: reported EC50; cited from earlier work
# [6] = cited from earlier work
# iKRas cells [7] = test: Lipidomics (LC-MS) after inhibitor treatment; settings: iKRas cells treated with darapladib; especially lysoPC, also lysoPE, lysoPI, lysoPS
# Method: Lipidomics and Analysis. 100 mm plates were seeded, grown, and induced so that on the day of harvest dishes were 90-100% confluent. Culture medium was Phenol red-free. To harvest conditioned media, the full volume was moved to a glass vial on dry ice/alcohol slurry and a fresh cold PBS volume equal to ¼ of the collected volume was used to rinse the cells; this volume was collected and pooled. To harvest lysate, a separate dish of cells was washed three times with cold HBSS; on the last wash, liquid was aspirated, and the dish was placed onto the dry ice/alcohol slurry to freeze for 30 seconds. 1 mL of a 2:0.8 parts methanol:water mix (chilled to −80° C. and stored on dry ice) was added to the plate. The dish was immediately moved to wet ice and scrapped with a rubber policeman. Lysate was pooled in the bottom of the dish, and then transferred to a glass vial on dry ice until −80° C. storage. The lysate extract vials were briefly flushed with nitrogen gas. […] Quantitation used an MRM method under positive and negative electrospray modes. Raw data was reported as Mol %, or ng/mL of the lipid species normalized to the absolute total lipid abundance (ng/mL) detected by the mass spectrometer. Reported data is Mol % divided by the total adherent cell count from a parallel-treated plate, calculated as a Fold change versus control: (iKRas/Vector)-1.
# [8] = test system: RAS harboring lines (iKRas cells and cell lines derived from lung, pancreas, and colorectal tumors); test: Cell viability after darapladib treatment (CellTiter-Glo); settings: 48 h incubation
# Method: (§3) 5,000 cells/well of doxycycline induced iKRas or target mouse/human cells were seeded in 96-well plates 1 day prior to the start of treatment. On the day of the experiment, increasing concentrations of darapladib were added in triplicate to the conditioned media. After incubation for 48 h, the cell viability was assessed using the CellTiter-Glo® luminescent assay (Promega G9681). Prior to use, reconstituted kit reagent was equilibrated to room temperature. To initiate cell lysis, 50 μL of reagent was added to each well. Plates were incubated for 10 minutes at room temperature with gentle mixing on an orbital shaker. Luminescence was measured using a Tecan Infinite M1000 Pro plate reader (Tecan Group Ltd.).
# [9] = test system: RAW 264.7 murine macrophages; test: as above; settings: 48 h incubation
# Method: as §3
# [10] = test system: eKRas versus wildtype SV40 MEFs; test: as above; settings: sigmoidal dose-response
# Method: as §3
# vector line = test: Intracellular endomembrane lipid nanosensor (reporter) assay, near-infrared hyperspectral microscopy; settings: 24 h with 100 nM dexamethasone salt
# Method: For lipid reporter imaging experiments, cells were plated on 35 mm glass bottom dishes (MatTek Corp. P35G-1.5-10-C) so that around 0.5-0.8E6 cells were present on assay day. 24 h prior to assay, cells were briefly rinsed with fresh media and cultured as described. On the day of the assay, test media was removed to a sterile Eppendorf, spun in a mini-fuge to pellet cellular debris, and stored at 37° C. Attached cells were briefly rinsed with Pulse media (serum-free complete medium), then exposed to nano-reporter (0.2 μg/mL in Pulse media) for 30 minutes. After exposure, excess nano-reporter was removed by rinsing in complete medium and the stored test media was re-added to the dish for the 5-h incubation period. Near-infrared hyperspectral microscopy^87 was performed on live attached cells to obtain fluorescence emission maps from endomembrane vesicles.^88 Briefly, a 730 nm continuous wave diode laser was pumped through fibers to a 100× oil objective to excite the fluorescent reporters inside attached cells. Collected emission was stored as a hyperspectral imaging cube of encoded wavelengths rectified between 1100 and 1200 nm. The center wavelength for each pixel in the cube was obtained by fitting a Lorentzian function in MATLAB. […]
# [11] = 20 nM during the 24 h induction period
structure (smiles),measurement,setting,value
O=C(N1CCCC1)n1ncc(-c2ccc(-c3ccccc3)cc2)n1 [AA39-2],attenuation of lipid reporter response (lipid dysregulation) in iKRas cells,iKRas cells [1],attenuated the reporter response
O=C1O/C(=C/Br)CCC1c1cccc2ccccc12 (stereo not drawn) [BEL],attenuation of lipid reporter response in iKRas cells,iKRas cells [1]; 75 nM during the 24 h induction period,unable to attenuate the lipid reporter response
Cn1nccc1Nc1nccc(-c2ccn([C@H](CO)c3ccc(Cl)c(F)c3)c(=O)c2)n1 [GDC-0994],lipid nanosensor response in iKRas relative to vector,iKRas cells [1],significantly diminished
CCCCCCCCCCCCCCCCOCC(COCC(F)(F)F)OP(=O)(O)OC (stereo not drawn) [MJ-33],attenuation of lipid reporter response in iKRas cells,iKRas cells [1]; [11],unable to attenuate the lipid reporter response
Cc1cc(N2CCN(C(=O)Oc3ccc(-c4ccccc4)cn3)CC2)c2ccccc2n1 [ML256],attenuation of lipid reporter response (lipid dysregulation) in iKRas cells,iKRas cells [1],attenuated the reporter response
N#Cc1c(Oc2ccc(F)c(NC(=O)Cc3cccc(C(F)(F)F)c3)c2)ccc2nc(NC(=O)C3CC3)sc12 [TAK-632],lipid nanosensor response in iKRas relative to vector,iKRas cells [1],significantly diminished
CC(C)OC(=O)c1ccc(N2C(=O)C(Cl)=C(Cl)C2=O)cc1 [TSI-01],attenuation of lipid reporter response in iKRas cells,iKRas cells [1]; 1 μM during the 24 h induction period,unable to attenuate the lipid reporter response
"Cc1c(C)c2c(c(C)c1O)CC[C@@](C)(CCC[C@H](C)CCC[C@H](C)CCCC(C)C)O2 [Vitamin E, α-tocopherol]",reporter response in iKRas cells,iKRas cells [1]; 20 μM ±-α-tocopherol during the 24 h induction period,abrogated
"CCCCCCCCCCCCCCCCOC[C@H](COP(=O)([O-])OCC[N+](C)(C)C)OC(=O)NC [cPAF, 16:0 methylcarbamyl PAF]",effect on eKRas cell proliferation,eKRas cells,potent arresting effect
same,effect on iKRas cell proliferation,iKRas cells [2],potent arresting effect
same,vector control cell proliferation,vector control cells,mild stimulatory effect
same,phospho-ERK and p21^waf1/cip1 expression,[3],increased
same,PAF-R expression,PAF receptor (PAF-R),downregulated
CCN(CC)CCN(Cc1ccc(-c2ccc(C(F)(F)F)cc2)cc1)C(=O)Cn1c(SCc2ccc(F)cc2)nc(=O)c2c1CCC2 [darapladib],attenuation of lipid reporter response (lipid dysregulation) in iKRas cells,iKRas cells [1],attenuated the reporter response
same,lung cancer-associated death and morbidity,"[4]; 10 mg/kg daily oral gavage starting on Day 1 or Day 6, C57BL/6 mice",significant delay
same,survival in Kras^G12D/+/p53^−/− lung cancer model in mice,"[4]; mouse, in vivo",prolonged survival
same,EC50,[5],10 to 1000 nM
same,safety in vivo,[6],safe and apparently side-effect-free
same,"cardiovascular clinical endpoint, Phase 3 trials",[6]; in vivo,failing to meet its intended cardiovascular clinical endpoint
same,lysophospholipid levels (lipidomics),iKRas cells [7],significant attenuation
same,viability of RAS harboring lines,[8],died at low micromolar concentrations
same,viability of RAW 264.7 control cell line,[9],largely unaffected
same,potency at killing eKRas versus wildtype cells,[10],twice as potent
C[C@@H]1C[C@H]2[C@@H]3CCC4=CC(=O)C=C[C@]4(C)[C@@]3(F)[C@@H](O)C[C@]2(C)[C@@]1(O)C(=O)CO [dexamethasone],reporter response in the vector line,vector line,increased the reporter response
"CCCCCCCCCCCCCCCC(=O)OC[C@@H](O)COP(=O)([O-])OCC[N+](C)(C)C [lysoPC, 16:0 lysoPC]",effect on eKRas cell proliferation,eKRas cells,negligible arresting effect or a reduced arresting effect
same,effect on iKRas cell proliferation,iKRas cells [2],negligible arresting effect or a reduced arresting effect
same,vector control cell proliferation,vector control cells,arrested
same,phospho-ERK and p21^waf1/cip1 expression,[3],not
COCCN1CCC(N(Cc2ccc(-c3ccc(C(F)(F)F)cc3)cc2)C(=O)Cn2c(SCc3cccc(F)c3F)cc(=O)c3ccccc32)CC1 [rilapladib],attenuation of lipid reporter response (lipid dysregulation) in iKRas cells,iKRas cells [1],attenuated the reporter response
CCc1c(C(=O)C(N)=O)c2c(OCC(=O)O)cccc2n1Cc1ccccc1 [varespladib],attenuation of lipid reporter response in iKRas cells,iKRas cells [1]; [11],unable to attenuate the lipid reporter response
